Source: PMC11407758, “Integrated stress response (ISR) activation and apoptosis through HRI kinase by PG3 and other p53 pathway-restoring cancer therapeutics” (Oncotarget, 2024)

Columns and labels:
[1] = tested on: GCN2, PKR, eIF2α, ATF4, CHOP in HT29 cells; assay: Western blot, ISR kinases / eIF2α / ATF4 / CHOP; assay type: cell-based, human; conditions: pre-treatment 2 hours, then ONC201 or PG3 for 24 hour
Procedure: Figure 7 PG3 induces upregulation of ATF4 through ISR via HRI. (A) HT29 cells were treated with PG3, GSK2606414, TG and ONC201 respectively, or co-treatment with PG3/GSK2606414, PG3/TG, and PG3/ONC201 for 15 h. (B) MEF, MEF^PERK−/− and MEF^GCN2−/− cells were treated with PG3 and ONC201 for 16 hours. (C) HT29 cells were transfected with siControl, siPKR, siHRI and siPKR/siHRI for 24 hours and then treated with PG3 for 16 hours. (D) HCT116 p53^−/− cells were transfected with siControl and siHRI for 24 hours and then treated with PG3 for 16 hours. (E) HCT116 p53^−/− cells were treated with PG3 and ONC201 for indicated times. (F) PANC1-sgCtrl, -sgHRI and -sgPKR cell lines were treated with PG3 and imipridones (ONC201, ONC206 and ONC212) for 16 hours. Western blot was performed using indicated antibodies. (G) Proposed model of PG3-induced cell apoptosis through HRI/ATF4/PUMA axis. Abbreviation: L.E.: Long exposure.
(§1) After treatment, protein lysates were collected for Western blot analysis. A total of 15 μg of protein was used for SDS-PAGE. After primary and secondary antibody incubations, the signal was detected by a chemiluminescence detection kit, imaged by Syngene (Imgen Technologies). Antibodies for NAG-1 (GDF15) and P53 were from Santa Cruz Biotechnology; for caspase 8, cleaved caspase 8, caspase 9, caspase 3, cleavage PARP, eIF2α, p-eIF2α (Ser51), CHOP, ATF4, DR5, and PUMA were from Cell Signaling Technology. Noxa and p21 were from Calbiochem. Ran was from BD Biosciences.
Supplementary Figure 2: ROS and NO are not responsible for PG3-induced HRI activation. (A, B) cells were pre-treated
with ZnPP, L-NMMA, SA and NAC for 2 hours respectively, and then ONC201 or PG3 was added to the medium for 24 hour treatment.
Western blot was performed using indicated antibodies.
(1 picture or pasted object on this page, not shown here)

p53 protein = assay: Western blot, p53 protein levels; assay type: cell-based, human; conditions: for wild-type p53 protein level: HCT116, 24 h; for endogenous mutant p53 R273H protein level: HT29, 24 h; for endogenous mutant p53 R175H protein level: TOV-112D; for endogenous mutant p53 R175H protein level / exogenous mutant p53 R175H protein level: 24 h; for exogenous mutant p53 R175H protein level: engineered HCT116-R175H cells
Procedure: Cells were treated for 24 h with indicated compounds, concentrations and cell lines. Abbreviations: S.E.: Short exposure; L.E.: Long exposure.
as §1

[2] = tested on: SW480 cells carrying a p53-responsive luciferase reporter; assay: p53-responsive reporter assay; assay type: cell-based, human; conditions: 6 hour and 15 hour time points
Procedure: SW480 cells carrying a p53-responsive luciferase reporter were used for assay of functional restoration of mutant p53. Cells were seeded in 96-well plates (5 × 10^4 cells/well) and were treated with compounds indicated for 6 and 15 h, respectively. Then, D-luciferin was added to each well with final concentration 100 μg/mL, and cells were imaged by using an IVIS Imaging System to detect luciferase activity.
p53-mutant SW480 human colon cancer cells, stably expressing a p53-responsive luciferase reporter, were used to assay functional restoration p53 pathway-dependent transcription in mutant p53-expressing tumor cells. Cells were seeded in 96-well plates (5 × 10^4 cells/well) and were treated with small-molecule compounds for 6 and 15 h, respectively. Then, D-luciferin was added to each well at a final concentration of 100 μg/mL, and cells were imaged by using an IVIS Imaging System (Xenogen) to detect luciferase activity.

DR5 = assay: Western blot, DR5 induction; assay type: cell-based, human
Procedure: (§2) Figure 4 Activation of ATF4 and up-regulation of typical p53 target genes. (A–E) Western blot analysis of p53 protein levels and upregulation of ATF4, PUMA, DR5 and p21. Cells were treated for 24 h with indicated compounds, concentrations and cell lines. Abbreviations: S.E.: Short exposure; L.E.: Long exposure.
as §1

[3] = tested on: HT29, TOV-112D, isogenic HCT116 cell lines, HFF-1 and MRC5; assay: Cell viability assay, panel of cancer cell lines and normal cells (results in words); assay type: cell-based, human
Procedure: (§3) Figure 2 p53-dependent inhibition of cell proliferation is only observed at specific concentrations. (A–J) Cell viability assay, dose response curves and IC50 value measurements in a panel of cancer cell lines and normal cells. Cells were treated with different concentrations of ZMC1, CP-313908, APR-246, Ellipticine, Nutalin-3a or DMSO for 72 h. Luciferase activity was imaged by the IVIS Imaging System after treatment. Cell viability data were normalized to those of DMSO treatment control in each cell line and data analyses were performed using PRISM4 software. IC50 data are expressed as the mean ±SD (normal; n = 3).
(§4) Cells were seeded in 96-well plates (6 × 10^3 cells/well). Cells were treated with different concentrations of compounds or dimethyl sulfoxide (DMSO) as a control for 72 hours. The cell viability was assessed by CellTiterGlo bioluminescent cell viability assay (Promega), following the manufacturer’s protocol. Bioluminescence imaging was measured using the IVIS imager. The percentage of cell viability (mean ± SEM) at each dose was calculated against the respective DMSO control. The IC50 values were determined from the sigmoidal dose-response curves using GraphPad Prism.

HT29 (R273H) = assay: Cell viability assay (CellTiterGlo), HT29; assay type: cell-based, human; conditions: Homo sapiens, HT-29; 72 h, CellTiterGlo
Procedure: as §3, with “1 PG3 inhibits” for “2 p53-dependent inhibition of”, “and growth in a p53-indepent manner. (A–E)” for “is only observed at specific concentrations. (A–J)”, “PG3, PG3-Oc (Oc), obatoclax (Ob), prodigiosin (P)” for “ZMC1, CP-313908, APR-246, Ellipticine, Nutalin-3a”
as §3, §4

HCT116 (P53−/−) = assay: Cell viability assay (CellTiterGlo), HCT116 p53-/-; assay type: cell-based, human; conditions: for IC50: 72 h, CellTiterGlo
Procedure: as §3, with “1 PG3 inhibits” for “2 p53-dependent inhibition of”, “and growth in a p53-indepent manner. (A–E)” for “is only observed at specific concentrations. (A–J)”, “PG3, PG3-Oc (Oc), obatoclax (Ob), prodigiosin (P)” for “ZMC1, CP-313908, APR-246, Ellipticine, Nutalin-3a”
as §3, §4

HCT116 (R175H) = assay: Cell viability assay (CellTiterGlo), HCT116 R175H; assay type: cell-based, human; conditions: for IC50: 72 h, CellTiterGlo
Procedure: as §3, with “1 PG3 inhibits” for “2 p53-dependent inhibition of”, “and growth in a p53-indepent manner. (A–E)” for “is only observed at specific concentrations. (A–J)”, “PG3, PG3-Oc (Oc), obatoclax (Ob), prodigiosin (P)” for “ZMC1, CP-313908, APR-246, Ellipticine, Nutalin-3a”
as §3, §4

[4] = tested on: HFF-1 (human foreskin fibroblast cell with wild-type p53); assay: Cell viability assay (CellTiterGlo), HFF-1 normal cells; assay type: cell-based; conditions: Homo sapiens, HFF-1; 72 h, CellTiterGlo, normal cells; read-out: IC50 values, HFF-l (WT)
Procedure: as §3, with “1 PG3 inhibits” for “2 p53-dependent inhibition of”, “and growth in a p53-indepent manner. (A–E)” for “is only observed at specific concentrations. (A–J)”, “PG3, PG3-Oc (Oc), obatoclax (Ob), prodigiosin (P)” for “ZMC1, CP-313908, APR-246, Ellipticine, Nutalin-3a”
as §3, §4

PUMA = assay: Western blot, PUMA induction; assay type: cell-based, human
Procedure: as §2, §1

ATF4 = assay: Western blot, ATF4 induction; assay type: cell-based, human; conditions: five cancer cell lines, 24 h
Procedure: as §2, §1

TOV-112D (R175H) = assay: Cell viability assay (CellTiterGlo), TOV-112D; assay type: cell-based, human
Procedure: as §3, with “1 PG3 inhibits” for “2 p53-dependent inhibition of”, “and growth in a p53-indepent manner. (A–E)” for “is only observed at specific concentrations. (A–J)”, “PG3, PG3-Oc (Oc), obatoclax (Ob), prodigiosin (P)” for “ZMC1, CP-313908, APR-246, Ellipticine, Nutalin-3a”
as §3, §4

p21 = assay: Western blot, p21 induction; assay type: cell-based, human
Procedure: as §2, §1

HCT116 (WT) = assay: Cell viability assay (CellTiterGlo), HCT116 WT; assay type: cell-based, human; conditions: for IC50: 72 h, CellTiterGlo
Procedure: as §3, with “1 PG3 inhibits” for “2 p53-dependent inhibition of”, “and growth in a p53-indepent manner. (A–E)” for “is only observed at specific concentrations. (A–J)”, “PG3, PG3-Oc (Oc), obatoclax (Ob), prodigiosin (P)” for “ZMC1, CP-313908, APR-246, Ellipticine, Nutalin-3a”
as §3, §4

[H]/N=C(/NC)NCCC[C@H](N)C(=O)O [L-NMMA, N-Methyl-L-arginine acetate]
effect on PG3- or ONC201-induced upregulation of ATF4 [1]: do not attenuate or block

Cc1c2ccncc2c(C)c2c1[nH]c1ccccc12 [Ellipticine]
wild-type p53 protein level (p53 protein): potently stabilizes | endogenous mutant p53 R273H protein level (p53 protein): stabilized | endogenous mutant p53 R175H protein level (p53 protein): mildly downregulates | exogenous mutant p53 R175H protein level (p53 protein): upregulates | p53-responsive reporter activity ([2]; 10 μM): activates the reporter activity | upregulation of DR5 (DR5; HCT116 (p53 wild-type), 24 h): slightly upregulates the short isomer of DR5 | upregulation of DR5 (DR5; HT29, 24 h): slightly upregulates the short isomer of DR5 | toxicity to normal cells ([3]; HFF-1 and MRC5, 0.04 to 3.33 μM): no significant toxicity | inhibition of proliferation ([3]; HT29 and TOV-112D, 0.04 to 3.33 μM): selectively inhibits the proliferation | IC50 (HT29 (R273H)): 0.713 µM | IC50 (HCT116 (P53−/−); Homo sapiens, HCT-116): 2.42 µM | IC50 (HCT116 (R175H); Homo sapiens, HCT-116): 1.79 µM | IC50 [4]: 6.07 µM | upregulation of PUMA (PUMA; HCT116 (p53 wild-type), 24 h): mildly upregulates PUMA | upregulation of PUMA (PUMA; HT29, 24 h): does not upregulate PUMA | upregulation of PUMA (PUMA; TOV-112D, 24 h): does not upregulate PUMA | upregulation of ATF4 (ATF4): do not upregulate ATF4 | IC50 (TOV-112D (R175H); Homo sapiens, TOV112D, 72 h, CellTiterGlo, read-out: IC50 values, TOV-1120 (R175H) (converted)): 19.3 µM | upregulation of p21 (p21; HCT116 (p53 wild-type), 24 h): significantly upregulates p21 | upregulation of p21 (p21; HCT116 p53-R175H, 24 h): mildly upregulates p21 | upregulation of p21 (p21; HCT116 p53–/–, 24 h): slightly upregulates p21 | upregulation of p21 (p21; HT29, 24 h): slightly upregulates p21 | upregulation of p21 (p21; TOV-112D, 24 h): mildly upregulates p21 | IC50 (HCT116 (WT); Homo sapiens, HCT-116): 0.999 µM | selective toxicity among isogenic HCT116 cell lines (HCT116 (WT); isogenic HCT116 cell lines, 1.11 μM): selective toxicity towards the p53-wild-type cell line

C=CC1=C(C)c2cc3[n-]c(cc4nc(cc5[n-]c(cc1n2)c(C)c5C=C)C(C)=C4CCC(=O)O)c(CCC(=O)O)c3C.[Zn+2] [ZnPP, Zinc protoporphyrin]
effect on PG3- or ONC201-induced upregulation of ATF4 [1]: do not attenuate or block

COc1ccc(C2=N[C@@H](c3ccc(Cl)cc3)[C@@H](c3ccc(Cl)cc3)N2C(=O)N2CCNC(=O)C2)c(OC(C)C)c1 [Nutlin-3a]
wild-type p53 protein level (p53 protein): stabilizes | endogenous mutant p53 R273H protein level (p53 protein): no effects | endogenous mutant p53 R175H protein level (p53 protein): no effects | exogenous mutant p53 R175H protein level (p53 protein): no effects | upregulation of DR5 (DR5; five cell lines, 24 h): does not upregulate DR5 | inhibitory activity ([3]; HT29 and TOV-112D): shows inhibitory activity | effect on viability ([3]; p53-null and p53 R175H HCT116, 6.67 μM): no significant effects | upregulation of PUMA (PUMA; HCT116 (p53 wild-type), 24 h): significantly upregulates | upregulation of ATF4 (ATF4): do not upregulate ATF4 | upregulation of p21 (p21; HCT116 (p53 wild-type), 24 h): significantly upregulates | inhibition of viability (HCT116 (WT); p53 wild-type HCT116, 6.67 μM): selectively inhibits the viability

CC(=O)N[C@@H](CS)C(=O)O [NAC, N-acetylcysteine]
effect on PG3- or ONC201-induced upregulation of ATF4 [1]: do not attenuate or block

COCC1(CO)C(=O)C2CCN1CC2 (centres unmarked) [APR-246]
wild-type p53 protein level (p53 protein): no effect | endogenous mutant p53 R273H protein level (p53 protein): stabilizes | endogenous mutant p53 R175H protein level (p53 protein): stabilizes | exogenous mutant p53 R175H protein level (p53 protein): does not stabilize | p53-responsive reporter activity ([2]; up to 60 μM): not able to activate the reporter | inhibitory effects on normal cells ([3]; HFF-1 and MRC5, 0.08 μM): no detectable inhibitory effects | inhibition of proliferation ([3]; TOV-112D and HT29, 0.08 μM): potently inhibited | IC50 (HCT116 (P53−/−)): 11.3 µM | fold more sensitive than the p53 wild-type HCT116 cell line (HCT116 (P53−/−); p53-null HCT116 vs HCT116 WT, 'at a concentration of 20 μM'): 2.9 fold | IC50 (HCT116 (R175H)): 8.87 µM | fold more sensitive than the p53 wild-type HCT116 cell line (HCT116 (R175H); p53-mutated R175H HCT116 vs HCT116 WT, 'at a concentration of 20 μM'): 3.7 fold | upregulation of PUMA (PUMA; HCT116 (p53 wild-type), 24 h): upregulates PUMA | upregulation of ATF4 (ATF4): does not upregulate ATF4 | inhibition of proliferation (TOV-112D (R175H); TOV-112D, 6.67 μM): almost completely inhibited | upregulation of p21 (p21; HCT116 (p53 wild-type), 24 h): slightly induces p21 | upregulation of p21 (p21; TOV-112D, 24 h): slightly induces p21 | IC50 (HCT116 (WT)): 33 µM
